Experiment: Radioactivity distribution in mouse body after intravenous administration of radioiodine labeled forms
Details: mouse, intravenous administration, mean (SD) of 3 to 5 mice
Procedure: Thereafter, 100 μl (0.5 to 1 μCi) of each labeled form was intravenously administered to each group consisting of three to five 5-week-old ddY male mice (25 to 30 g). 2, 10, 30, and 60 minutes after the intravenous administration, such mice were decapitated, and blood was collected. Thereafter, organs were excised, and the weight and radioactivity thereof were then measured.

Row | SMILES | Distribution of radioactivity, Blood (2 min after administration) | Distribution of radioactivity, Blood (10 min after administration) | Distribution of radioactivity, Blood (30 min after administration) | Distribution of radioactivity, Blood (60 min after administration) | Distribution of radioactivity, Brain (2 min after administration) | Distribution of radioactivity, Brain (10 min after administration) | Distribution of radioactivity, Brain (30 min after administration) | Distribution of radioactivity, Brain (60 min after administration) | Distribution of radioactivity, Heart (2 min after administration) | Distribution of radioactivity, Heart (10 min after administration) | Distribution of radioactivity, Heart (30 min after administration) | Distribution of radioactivity, Heart (60 min after administration) | Distribution of radioactivity, Intestine (2 min after administration) | Distribution of radioactivity, Intestine (10 min after administration) | Distribution of radioactivity, Intestine (30 min after administration) | Distribution of radioactivity, Intestine (60 min after administration) | Distribution of radioactivity, Kidney (2 min after administration) | Distribution of radioactivity, Kidney (10 min after administration) | Distribution of radioactivity, Kidney (30 min after administration) | Distribution of radioactivity, Kidney (60 min after administration) | other results
1 | CNc1ccc(-c2cc(=O)c3cc([125I])ccc3o2)cc1 [[125I]Compound 10] | 1.89 (0.28) % ID/g | 1.39 (0.10) % ID/g | 1.34 (0.07) % ID/g | 1.50 (0.09) % ID/g | 4.12 (0.15) % ID/g | 3.68 (0.18) % ID/g | 1.84 (0.12) % ID/g | 1.19 (0.04) % ID/g | 4.87 (0.66) % ID/g | 2.66 (0.12) % ID/g | 1.67 (0.14) % ID/g | 1.28 (0.12) % ID/g | 3.10 (0.61) % ID/g | 7.91 (1.05) % ID/g | 12.84 (1.18) % ID/g | 21.48 (3.17) % ID/g | 8.13 (1.28) % ID/g | 5.21 (0.44) % ID/g | 3.85 (0.33) % ID/g | 3.05 (0.25) % ID/g | Distribution of radioactivity, Liver (2 min after administration): 16.28 (0.90) % ID/g; Distribution of radioactivity, Liver (10 min after administration): 25.28 (0.31) % ID/g; Distribution of radioactivity, Liver (30 min after administration): 18.61 (1.81) % ID/g; Distribution of radioactivity, Liver (60 min after administration): 15.14 (0.89) % ID/g; Distribution of radioactivity, Spleen (2 min after administration): 2.57 (1.54) % ID/g; Distribution of radioactivity, Spleen (10 min after administration): 2.31 (0.01) % ID/g; Distribution of radioactivity, Spleen (30 min after administration): 1.76 (0.23) % ID/g; Distribution of radioactivity, Spleen (60 min after administration): 1.52 (0.29) % ID/g
2 | CN(C)c1ccc(-c2cc(=O)c3cc([125I])ccc3o2)cc1 [[125I]Compound 11] | 1.87 (0.18) % ID/g | 1.07 (0.08) % ID/g | 1.20 (0.15) % ID/g | 1.15 (0.16) % ID/g | 3.22 (0.15) % ID/g | 3.61 (0.60) % ID/g | 1.89 (0.21) % ID/g | 0.99 (0.10) % ID/g | 5.63 (0.80) % ID/g | 2.47 (0.14) % ID/g | 1.69 (0.06) % ID/g | 1.07 (0.17) % ID/g | 2.24 (0.24) % ID/g | 6.56 (0.83) % ID/g | 12.97 (1.15) % ID/g | 18.64 (2.05) % ID/g | 8.33 (1.47) % ID/g | 4.31 (0.28) % ID/g | 3.40 (0.31) % ID/g | 2.32 (0.45) % ID/g | Distribution of radioactivity, Liver (2 min after administration): 15.41 (0.98) % ID/g; Distribution of radioactivity, Liver (10 min after administration): 21.85 (2.14) % ID/g; Distribution of radioactivity, Liver (30 min after administration): 15.71 (0.96) % ID/g; Distribution of radioactivity, Liver (60 min after administration): 12.40 (2.38) % ID/g; Distribution of radioactivity, Spleen (2 min after administration): 2.72 (0.20) % ID/g; Distribution of radioactivity, Spleen (10 min after administration): 1.92 (0.33) % ID/g; Distribution of radioactivity, Spleen (30 min after administration): 1.58 (0.31) % ID/g; Distribution of radioactivity, Spleen (60 min after administration): 1.18 (0.17) % ID/g
3 | COc1ccc(-c2cc(=O)c3cc([125I])ccc3o2)cc1 [[125I]Compound 19] | 1.87 (0.21) % ID/g | 1.19 (0.17) % ID/g | 0.40 (0.01) % ID/g | 0.23 (0.09) % ID/g | 4.00 (0.18) % ID/g | 2.36 (0.33) % ID/g | 0.51 (0.07) % ID/g | 0.17 (0.05) % ID/g | 4.98 (0.41) % ID/g | 2.25 (0.40) % ID/g | 0.84 (0.14) % ID/g | 0.47 (0.22) % ID/g | 3.52 (0.29) % ID/g | 14.39 (0.80) % ID/g | 22.51 (1.11) % ID/g | 30.05 (3.61) % ID/g | 7.99 (1.08) % ID/g | 6.30 (1.02) % ID/g | 4.51 (1.59) % ID/g | 1.46 (1.12) % ID/g | Distribution of radioactivity, Liver (2 min after administration): 8.96 (1.48) % ID/g; Distribution of radioactivity, Liver (10 min after administration): 9.01 (0.97) % ID/g; Distribution of radioactivity, Liver (30 min after administration): 3.75 (0.47) % ID/g; Distribution of radioactivity, Liver (60 min after administration): 1.88 (0.61) % ID/g; Distribution of radioactivity, Spleen (2 min after administration): 2.70 (0.08) % ID/g; Distribution of radioactivity, Spleen (10 min after administration): 1.38 (0.37) % ID/g; Distribution of radioactivity, Spleen (30 min after administration): 0.55 (0.30) % ID/g; Distribution of radioactivity, Spleen (60 min after administration): 3.67 (5.89) % ID/g
4 | O=c1cc(-c2ccc(O)cc2)oc2ccc([125I])cc12 [[125I]Compound 20] | 2.77 (0.43) % ID/g | 1.58 (0.18) % ID/g | 0.66 (0.03) % ID/g | 0.20 (0.02) % ID/g | 3.31 (0.32) % ID/g | 1.90 (0.07) % ID/g | 0.52 (0.03) % ID/g | 0.08 (0.02) % ID/g | 5.51 (0.71) % ID/g | 1.60 (0.18) % ID/g | 0.53 (0.04) % ID/g | 0.12 (0.02) % ID/g | 3.12 (0.37) % ID/g | 11.26 (0.63) % ID/g | 22.01 (1.34) % ID/g | 27.28 (0.48) % ID/g | 14.79 (2.59) % ID/g | 15.11 (2.00) % ID/g | 6.45 (0.84) % ID/g | 1.66 (0.62) % ID/g | Distribution of radioactivity, Liver (2 min after administration): 9.77 (1.89) % ID/g; Distribution of radioactivity, Liver (10 min after administration): 8.24 (0.50) % ID/g; Distribution of radioactivity, Liver (30 min after administration): 6.80 (0.86) % ID/g; Distribution of radioactivity, Liver (60 min after administration): 4.78 (1.09) % ID/g; Distribution of radioactivity, Spleen (2 min after administration): 3.92 (1.18) % ID/g; Distribution of radioactivity, Spleen (10 min after administration): 1.55 (0.15) % ID/g; Distribution of radioactivity, Spleen (30 min after administration): 0.56 (0.13) % ID/g; Distribution of radioactivity, Spleen (60 min after administration): 0.17 (0.06) % ID/g

From patent US8192717B2, “Composition for diagnosing amyloid-related diseases” (Nagasaki University, priority 2004, dated 2012)
